Consider 2 molecules from ChEMBL document CHEMBL1201862, “PubChem BioAssay data set” (2004).

Assay [1] deals with T1, Exodeoxyribonuclease V (Escherichia coli (strain K12), UniProt P04993+P07648+P08394).
T1 sequence (P04993 whole entry): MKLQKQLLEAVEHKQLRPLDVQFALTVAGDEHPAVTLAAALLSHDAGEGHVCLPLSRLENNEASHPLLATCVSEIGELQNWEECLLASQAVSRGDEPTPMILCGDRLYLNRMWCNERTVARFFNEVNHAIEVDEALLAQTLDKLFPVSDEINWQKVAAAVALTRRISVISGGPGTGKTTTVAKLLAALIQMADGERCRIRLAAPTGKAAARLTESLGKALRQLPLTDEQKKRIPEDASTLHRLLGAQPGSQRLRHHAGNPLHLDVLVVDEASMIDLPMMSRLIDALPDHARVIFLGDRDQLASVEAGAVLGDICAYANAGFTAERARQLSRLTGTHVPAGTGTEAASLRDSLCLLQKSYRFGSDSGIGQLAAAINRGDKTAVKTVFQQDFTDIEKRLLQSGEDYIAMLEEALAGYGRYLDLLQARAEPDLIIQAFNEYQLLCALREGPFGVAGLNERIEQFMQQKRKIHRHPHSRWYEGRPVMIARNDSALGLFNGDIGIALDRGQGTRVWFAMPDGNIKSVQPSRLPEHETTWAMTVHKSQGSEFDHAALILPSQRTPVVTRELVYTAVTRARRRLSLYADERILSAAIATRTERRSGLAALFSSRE
T1 sequence (P07648 whole entry): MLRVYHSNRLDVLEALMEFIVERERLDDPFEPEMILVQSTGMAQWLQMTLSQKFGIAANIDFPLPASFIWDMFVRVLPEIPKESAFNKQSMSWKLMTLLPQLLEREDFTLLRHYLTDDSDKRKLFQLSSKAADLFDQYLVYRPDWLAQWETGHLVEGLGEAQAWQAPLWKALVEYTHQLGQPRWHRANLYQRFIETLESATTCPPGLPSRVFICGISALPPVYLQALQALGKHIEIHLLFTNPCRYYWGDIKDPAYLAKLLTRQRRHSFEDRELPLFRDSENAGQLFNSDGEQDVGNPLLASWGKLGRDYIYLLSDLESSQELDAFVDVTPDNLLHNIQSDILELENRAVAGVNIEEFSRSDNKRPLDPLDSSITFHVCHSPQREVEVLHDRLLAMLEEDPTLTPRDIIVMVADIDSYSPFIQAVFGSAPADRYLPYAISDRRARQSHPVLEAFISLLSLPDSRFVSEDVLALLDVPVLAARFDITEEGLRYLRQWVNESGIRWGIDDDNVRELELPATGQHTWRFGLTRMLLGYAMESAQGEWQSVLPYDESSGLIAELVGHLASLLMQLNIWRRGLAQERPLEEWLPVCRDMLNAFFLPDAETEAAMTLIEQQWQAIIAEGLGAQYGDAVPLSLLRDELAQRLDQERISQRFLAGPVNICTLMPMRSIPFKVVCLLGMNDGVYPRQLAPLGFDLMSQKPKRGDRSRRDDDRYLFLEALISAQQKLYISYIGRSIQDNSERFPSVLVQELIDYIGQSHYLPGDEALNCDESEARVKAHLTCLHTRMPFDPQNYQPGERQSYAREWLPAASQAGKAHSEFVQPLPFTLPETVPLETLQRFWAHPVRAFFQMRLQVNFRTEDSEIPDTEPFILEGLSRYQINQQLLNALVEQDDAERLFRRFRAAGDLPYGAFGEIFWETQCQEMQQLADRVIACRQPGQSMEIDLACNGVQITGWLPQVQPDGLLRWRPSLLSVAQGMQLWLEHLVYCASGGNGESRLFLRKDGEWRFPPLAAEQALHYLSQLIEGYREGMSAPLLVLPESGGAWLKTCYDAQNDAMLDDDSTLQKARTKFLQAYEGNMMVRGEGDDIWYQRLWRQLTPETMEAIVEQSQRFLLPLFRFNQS
T1 sequence (P08394 whole entry): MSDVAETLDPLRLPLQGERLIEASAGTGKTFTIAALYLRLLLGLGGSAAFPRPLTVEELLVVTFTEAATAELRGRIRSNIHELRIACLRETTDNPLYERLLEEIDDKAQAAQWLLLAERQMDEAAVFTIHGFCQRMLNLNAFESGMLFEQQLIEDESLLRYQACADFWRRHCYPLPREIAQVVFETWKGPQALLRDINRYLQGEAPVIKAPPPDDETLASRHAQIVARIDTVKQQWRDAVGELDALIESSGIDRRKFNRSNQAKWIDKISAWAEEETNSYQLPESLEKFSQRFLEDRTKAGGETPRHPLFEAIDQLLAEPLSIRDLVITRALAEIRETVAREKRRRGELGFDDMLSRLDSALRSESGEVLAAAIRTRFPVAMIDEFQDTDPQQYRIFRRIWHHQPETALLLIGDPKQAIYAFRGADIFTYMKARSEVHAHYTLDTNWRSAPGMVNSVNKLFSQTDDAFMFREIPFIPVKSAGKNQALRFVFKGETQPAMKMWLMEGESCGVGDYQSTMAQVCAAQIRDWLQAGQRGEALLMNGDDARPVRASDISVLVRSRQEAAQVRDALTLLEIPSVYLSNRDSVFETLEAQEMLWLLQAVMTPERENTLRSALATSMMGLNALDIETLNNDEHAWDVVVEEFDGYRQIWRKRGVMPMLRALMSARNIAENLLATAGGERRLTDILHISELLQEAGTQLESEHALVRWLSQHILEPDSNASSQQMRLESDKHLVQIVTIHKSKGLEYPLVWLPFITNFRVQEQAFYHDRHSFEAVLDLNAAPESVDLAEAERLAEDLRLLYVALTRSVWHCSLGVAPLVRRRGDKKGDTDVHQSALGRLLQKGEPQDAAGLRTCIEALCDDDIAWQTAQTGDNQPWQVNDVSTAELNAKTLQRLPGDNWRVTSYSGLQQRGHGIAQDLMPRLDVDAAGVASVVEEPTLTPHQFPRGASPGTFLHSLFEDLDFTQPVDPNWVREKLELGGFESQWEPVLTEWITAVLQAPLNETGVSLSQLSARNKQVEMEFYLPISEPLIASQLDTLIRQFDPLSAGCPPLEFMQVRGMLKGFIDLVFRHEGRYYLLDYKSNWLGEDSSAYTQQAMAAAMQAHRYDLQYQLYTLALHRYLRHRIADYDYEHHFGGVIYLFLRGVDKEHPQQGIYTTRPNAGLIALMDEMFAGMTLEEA
The assay can be described thus: E. coli RecBCD inhibitors, dose response, counter-screen for AddAB inhibitor project, absorbance, V66 E. coli, mutant T4 phage (AID 492957). The assay is classed as functional, cell-based, Escherichia coli str. K-12 substr. MG1655.

Assay [2] addresses Tyrosine-protein kinase JAK2 (Homo sapiens, UniProt O60674). The class given is functional.
Assay [3] concerns the target MAP/microtubule affinity-regulating kinase 3 (Homo sapiens, UniProt P27448). The assay is classed as functional.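 Further: MARK3 affinity measured as one member of a kinome panel.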
The target in assay [4] is STE20-like serine/threonine-protein kinase (Homo sapiens, UniProt Q9H2G2). The class given is functional.
STE20-like serine/threonine-protein kinase, sequence (Q9H2G2 whole entry): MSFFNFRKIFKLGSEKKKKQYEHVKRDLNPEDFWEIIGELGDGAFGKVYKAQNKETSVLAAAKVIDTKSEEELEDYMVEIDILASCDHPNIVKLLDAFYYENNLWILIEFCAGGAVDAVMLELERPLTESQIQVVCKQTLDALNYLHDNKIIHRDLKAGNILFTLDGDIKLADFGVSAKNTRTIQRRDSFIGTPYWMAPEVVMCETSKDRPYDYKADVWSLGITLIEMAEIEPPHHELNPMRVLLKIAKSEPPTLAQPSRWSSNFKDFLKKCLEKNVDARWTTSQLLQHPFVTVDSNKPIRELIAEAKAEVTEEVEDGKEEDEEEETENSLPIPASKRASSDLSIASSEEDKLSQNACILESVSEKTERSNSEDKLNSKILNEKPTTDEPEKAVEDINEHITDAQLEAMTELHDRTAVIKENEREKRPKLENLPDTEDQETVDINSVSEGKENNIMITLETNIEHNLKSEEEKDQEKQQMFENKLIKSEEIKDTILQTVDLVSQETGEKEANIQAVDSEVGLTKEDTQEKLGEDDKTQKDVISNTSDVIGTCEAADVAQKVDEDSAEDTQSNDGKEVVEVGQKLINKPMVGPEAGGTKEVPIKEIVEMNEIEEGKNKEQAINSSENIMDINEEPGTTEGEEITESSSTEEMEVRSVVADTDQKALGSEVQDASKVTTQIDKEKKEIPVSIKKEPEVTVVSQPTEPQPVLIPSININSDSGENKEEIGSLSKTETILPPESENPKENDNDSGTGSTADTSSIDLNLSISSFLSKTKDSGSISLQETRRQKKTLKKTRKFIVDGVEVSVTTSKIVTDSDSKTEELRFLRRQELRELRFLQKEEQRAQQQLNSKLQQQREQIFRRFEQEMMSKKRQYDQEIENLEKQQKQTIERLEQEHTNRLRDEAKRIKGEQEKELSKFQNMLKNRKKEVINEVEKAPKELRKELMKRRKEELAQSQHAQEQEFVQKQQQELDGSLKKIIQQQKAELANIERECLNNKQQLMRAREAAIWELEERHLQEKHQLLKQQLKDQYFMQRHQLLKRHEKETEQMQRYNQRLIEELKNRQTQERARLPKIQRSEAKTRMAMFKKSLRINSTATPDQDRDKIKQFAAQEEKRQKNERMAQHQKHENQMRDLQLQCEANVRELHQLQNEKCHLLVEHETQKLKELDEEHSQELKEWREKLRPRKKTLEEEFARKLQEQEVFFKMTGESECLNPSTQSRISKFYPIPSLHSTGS
Assay [5] has as its target cAMP-dependent protein kinase catalytic subunit alpha (Homo sapiens, UniProt P17612). The class given is functional.

Activity calls are given as the source filed them. How the calls were made is not given here.

Tyrosine-protein kinase JAK2, sequence (O60674 whole entry): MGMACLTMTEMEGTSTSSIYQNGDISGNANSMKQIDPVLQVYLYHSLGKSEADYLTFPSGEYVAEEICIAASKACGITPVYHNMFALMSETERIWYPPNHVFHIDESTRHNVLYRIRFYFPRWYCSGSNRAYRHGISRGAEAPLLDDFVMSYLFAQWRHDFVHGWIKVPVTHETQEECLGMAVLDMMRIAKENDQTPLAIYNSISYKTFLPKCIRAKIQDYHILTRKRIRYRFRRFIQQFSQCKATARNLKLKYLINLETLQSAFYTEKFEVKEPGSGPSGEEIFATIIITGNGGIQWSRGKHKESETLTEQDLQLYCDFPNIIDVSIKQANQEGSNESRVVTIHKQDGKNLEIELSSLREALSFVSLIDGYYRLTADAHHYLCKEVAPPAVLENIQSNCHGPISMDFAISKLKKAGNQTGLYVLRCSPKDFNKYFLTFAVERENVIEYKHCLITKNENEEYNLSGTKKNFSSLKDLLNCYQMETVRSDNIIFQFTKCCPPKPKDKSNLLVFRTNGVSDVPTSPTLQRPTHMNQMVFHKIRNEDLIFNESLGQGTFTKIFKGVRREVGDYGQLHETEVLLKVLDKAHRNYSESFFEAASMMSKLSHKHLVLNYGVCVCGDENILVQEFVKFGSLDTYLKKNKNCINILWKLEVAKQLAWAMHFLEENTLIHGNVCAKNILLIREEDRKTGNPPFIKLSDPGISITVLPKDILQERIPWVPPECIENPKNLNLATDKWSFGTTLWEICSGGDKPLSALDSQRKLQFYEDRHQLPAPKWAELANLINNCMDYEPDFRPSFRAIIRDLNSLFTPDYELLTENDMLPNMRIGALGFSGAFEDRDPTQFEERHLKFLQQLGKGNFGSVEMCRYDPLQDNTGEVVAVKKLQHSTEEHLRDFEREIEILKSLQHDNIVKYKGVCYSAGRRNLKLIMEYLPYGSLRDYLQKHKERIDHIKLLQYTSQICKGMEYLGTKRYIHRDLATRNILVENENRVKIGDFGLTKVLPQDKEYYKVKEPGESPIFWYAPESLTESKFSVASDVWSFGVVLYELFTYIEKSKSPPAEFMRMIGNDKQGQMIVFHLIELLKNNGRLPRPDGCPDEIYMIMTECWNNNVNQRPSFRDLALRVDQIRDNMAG
MAP/microtubule affinity-regulating kinase 3, sequence (P27448 whole entry): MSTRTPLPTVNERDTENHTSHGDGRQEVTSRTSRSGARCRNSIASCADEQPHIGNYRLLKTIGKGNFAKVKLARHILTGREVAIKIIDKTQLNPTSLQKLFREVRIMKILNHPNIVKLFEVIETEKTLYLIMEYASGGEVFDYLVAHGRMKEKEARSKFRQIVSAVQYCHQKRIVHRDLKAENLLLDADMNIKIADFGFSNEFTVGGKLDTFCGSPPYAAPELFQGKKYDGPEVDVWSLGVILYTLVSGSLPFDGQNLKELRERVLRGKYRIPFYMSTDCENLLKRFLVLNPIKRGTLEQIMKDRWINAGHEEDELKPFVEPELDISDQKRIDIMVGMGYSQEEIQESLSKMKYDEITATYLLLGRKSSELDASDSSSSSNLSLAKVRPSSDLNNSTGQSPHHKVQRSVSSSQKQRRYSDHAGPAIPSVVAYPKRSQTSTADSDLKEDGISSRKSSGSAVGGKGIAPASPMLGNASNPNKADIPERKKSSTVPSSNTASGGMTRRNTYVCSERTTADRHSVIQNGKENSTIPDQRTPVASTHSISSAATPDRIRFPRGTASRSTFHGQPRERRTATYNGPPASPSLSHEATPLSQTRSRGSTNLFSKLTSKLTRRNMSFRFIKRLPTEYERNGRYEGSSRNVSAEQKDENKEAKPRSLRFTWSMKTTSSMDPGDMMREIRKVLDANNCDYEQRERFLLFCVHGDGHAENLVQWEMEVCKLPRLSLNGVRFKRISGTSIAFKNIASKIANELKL

One may read the IC50 as the concentration that inhibits the measured activity by half. Turning to `COc1ccc(-c2nnc(NC(=O)c3ccc(F)cc3)o2)cc1`, the IC50 in assay [1] is > 118000 nM (inactive).

The term Ki denotes the equilibrium dissociation constant of an inhibitor or competing ligand from its target. Consider `CCn1c(-c2nonc2N)nc2cnc(Oc3cccc(NC(=O)c4ccc(OCCN5CCOCC5)cc4)c3)cc21` [GSK-269962A], for which the Ki in assay [2] was > 1580 nM (inactive); in assay [3] it was 1580 nM (active); in assay [4], 1580 nM (active); in assay [5] it was 31.6 nM (active).
